Target: T1, Ba/F3 cell EGFR Exon20 ins NPH (Homo sapiens, UniProt P00533, INS773NPH)
T1 construct: expressed in transfected cells; host or cells: Ba/F3
Experiment: Ba/F3 cell proliferation suppression, EGFR Exon20 ins NPH
Format: cell-based
Conditions: GI50 class; Ba/F3 cell line with NPH inserted at Exon20 of EGFR; 72 hours
Procedure, shortened: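 Growth suppression determined as GI50 following 72 h exposure across 12 concentrations up to 50 um, with viability by luminescent ATP assay (CellTiter-Glo).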

Structure (SMILES): C=CC(=O)Nc1cc(Nc2cc(N3OCC[C@@H]3c3ccc(F)c(Cl)c3F)ncn2)c(OC)cc1N1CCC(N2C[C@@H]3C[C@H]2CO3)CC1 [compound 637, N-(2-(4-((1S,4S)-2-oxa-5-azabicyclo[2.2.1]heptane-5-yl)piperidine-1-yl)-5-((6-((R)-3-(3-chloro-2,4-difluorophenyl)isoxazolidine-2-yl)pyrimidine-4-yl)amino)-4-methoxyphenyl) acrylamide]
- Ba/F3 (NPH) Activity: A (GI50 < 50 nM)

Structure (SMILES): C=CC(=O)Nc1cc(Nc2cc(N3OCC[C@@H]3c3cccc(C)c3F)ncn2)c(OC)cc1N1CC[C@@H](N(C)C)C1 [compound 860, N-(2-((R)-3-(dimethylamino)pyrolidine-1-yl)-5-((6-((R)-3-(2-fluoro-3-methylphenyl)isoxazolidine-2-yl)pyrimidine-4-yl)amino)-4-methoxyphenyl) acrylamide]
- Ba/F3 (NPH) Activity: A (GI50 < 50 nM)

Structure (SMILES): C=CC(=O)Nc1cc(Nc2cc(N3OCC[C@@H]3c3ccc(Cl)c(Cl)c3)ncn2)c(OC)cc1N1C[C@@H]2C[C@H]1CN2CC [compound 678, N-(5-((6-((R)-3-(3,4-dichlorophenyl)isoxazolidine-2-yl)pyrimidine-4-yl)amino)-2-((1S,4S)-5-ethyl-2,5-diazabicyclo[2.2.1]heptane-2-yl)-4-methoxyphenyl) acrylamide]
- Ba/F3 (NPH) Activity: A (GI50 < 50 nM)

Structure (SMILES): C=CC(=O)Nc1cc(Nc2cc(N3OCC[C@@H]3c3ccc(F)c(Cl)c3)ncn2)c(OC)cc1N1CCN(CC)CC1 [compound 723, N-(5-((6-((R)-3-(3-chloro-4-fluorophenyl)isoxazolidine-2-yl)pyrimidine-4-yl)amino)-2-(4-ethylpiperazine-1-yl)-4-methoxyphenyl) acrylamide]
- Ba/F3 (NPH) Activity: A (GI50 < 50 nM)

Structure (SMILES): C=CC(=O)Nc1cc(Nc2cc(N3OCC[C@@H]3c3ccc(F)cc3F)ncn2)c(OC)cc1N1CCN(C2CC2)[C@@H](C)C1 [compound 479, N-(2-((S)-4-cyclopropyl-3-methylpiperazine-1-yl)-5-((6-((R)-3-(2,4-difluorophenyl)isoxazolidine-2-yl)pyrimidine-4-yl)amino)-4-methoxyphenyl) acrylamide]
- Ba/F3 (NPH) Activity: A (GI50 < 50 nM)

Structure (SMILES): C=CC(=O)Nc1cc(Nc2cc(N3OCC[C@@H]3c3c(F)ccc(F)c3F)ncn2)c(OC)cc1N1CCC(N2CCN(C3CC3)CC2)CC1 [Example 169, N-(2-(4-(4-cyclopropylpiperazine-1-yl)piperidine-1-yl)-4-methoxy-5-((6-((R)-3-(2,3,6-trifluorophenyl)isoxazolidine-yl)pyrimidine-4-yl)amino)phenyl)acrylamide]
- Ba/F3 (NPH) Activity: A (GI50 < 50 nM)

Structure (SMILES): C=CC(=O)Nc1cc(Nc2cc(N3OCC[C@@H]3c3ccc(F)cc3F)ncn2)c(OC)cc1N(C)CCN(C)C [compound 350, N-(5-((6-((R)-3-(2,4-difluorophenyl)isoxazolidine-2-yl)pyrimidine-4-yl)amino)-2-((2-(dimethylamino)ethyl)(methyl)amino)-4-methoxyphenyl) acrylamide]
- Ba/F3 (NPH) Activity: A (GI50 < 50 nM)

Structure (SMILES): C=CC(=O)Nc1cc(Nc2cc(N3OCC[C@@H]3c3ccc(F)c(Cl)c3F)ncn2)c(OC)cc1N1CCO[C@H](C)C1 [compound 666, N-(5-((6-((R)-3-(3-chloro-2,4-difluorophenyl)isoxazolidine-2-yl)pyrimidine-4-yl)amino)-4-methoxy-2-((R)-2-methylmorpholino)phenyl)acrylamide]
- Ba/F3 (NPH) Activity: B (50 nM ≤ GI50 < 500 nM)

Structure (SMILES): C=CC(=O)Nc1cc(Nc2cc(N3OCC[C@@H]3c3ccc4ccccc4c3)ncn2)c(OC)cc1N1CC[C@@H](N(C)C)C1 [compound 513, N-(2-((R)-3-(dimethylamino)pyrolidine-1-yl)-4-methoxy-5-((6-((R)-3-(naphthalene-2-yl)isoxazolidine-2-yl)pyrimidine-4-yl)amino)phenyl)acrylamide]
- Ba/F3 (NPH) Activity: B (50 nM ≤ GI50 < 500 nM)

Structure (SMILES): C=CC(=O)Nc1cc(Nc2cc(N3OCC[C@@H]3c3cc(F)ccc3F)ncn2)c(OC)cc1N1CCC(N2CCN(C3CCCC3)CC2)CC1 [Example 100, N-(2-(4-(4-cyclopentylpiperazine-1-yl)piperidine-1-yl)-5-((6-((R)-3-(2,5-difluorophenyl)isoxazolidine-2-yl)pyrimidine-4-yl)amino)-4-methoxyphenyl) acrylamide]
- Ba/F3 (NPH) Activity: A (GI50 < 50 nM)

Structure (SMILES): C=CC(=O)Nc1cc(Nc2cc(N3OCC[C@@H]3c3cccc(Cl)c3F)ncn2)c(OC)cc1N1CCC(N2CCCN(C3CC3)CC2)CC1 [compound 358, N-(5-((6-((R)-3-(3-chloro-2-fluorophenyl)isoxazolidine-2-yl)pyrimidine-4-yl)amino)-2-(4-(4-cyclopropyl-1,4-diazepane-1-yl)piperidine-1-yl)-4-methoxyphenyl) acrylamide]
- Ba/F3 (NPH) Activity: A (GI50 < 50 nM)

Structure (SMILES): C=CC(=O)Nc1cc(Nc2cc(N3OCC[C@@H]3c3cc(F)ccc3F)ncn2)c(OC)cc1N1CCN(C2COC2)CC1 [compound 881, N-(5-((6-((R)-3-(2,5-difluorophenyl)isoxazolidine-2-yl)pyrimidine-4-yl)amino)-4-methoxy-2-(4-(oxetane-3-yl)piperazine-1-yl)phenyl) acrylamide]
- Ba/F3 (NPH) Activity: A (GI50 < 50 nM)

Structure (SMILES): C=CC(=O)Nc1cc(Nc2cc(N3OCC[C@@H]3c3cc(F)ccc3F)ncn2)c(OC)cc1N1CCN(C2CC2)C[C@@H]1C [compound 879, N-(2-((S)-4-cyclopropyl-2-methylpiperazine-1-yl)-5-((6-((R)-3-(2,5-difluorophenyl)isoxazolidine-2-yl)pyrimidine-4-yl)amino)-4-methoxyphenyl) acrylamide]
- Ba/F3 (NPH) Activity: A (GI50 < 50 nM)

Structure (SMILES): C=CC(=O)Nc1cc(Nc2cc(N3OCC[C@@H]3c3cccc(Cl)c3Cl)ncn2)c(OC)cc1N1CCC(N2CCN(CC)CC2)CC1 [compound 569, N-(5-((6-((R)-3-(2,3-dichlorophenyl)isoxazolidine-2-yl)pyrimidine-4-yl)amino)-2-(4-(4-ethylpiperazine-1-yl)piperidine-1-yl)-4-methoxyphenyl) acrylamide]
- Ba/F3 (NPH) Activity: A (GI50 < 50 nM)

Structure (SMILES): C=CC(=O)Nc1cc(Nc2cc(N3OCC[C@@H]3c3cccc(C)c3F)ncn2)c(OC)cc1N1CCC(N2C[C@@H](C)N(C3CC3)C[C@H]2C)CC1 [Example 124, N-(2-(4-((2R,5R)-4-cyclopropyl-2,5-dimethylpiperazine-1-yl)piperidine-1-yl)-5-((6-((R)-3-(2-fluoro-3-methylphenyl)isoxazolidine-2-yl)pyrimidine-4-yl)amino)-4-methoxyphenyl) acrylamide]
- Ba/F3 (NPH) Activity: A (GI50 < 50 nM)

Structure (SMILES): C=CC(=O)Nc1cc(Nc2cc(N3OCC[C@@H]3c3cccc(C(F)(F)F)c3)ncn2)c(OC)cc1N(C)CCN(C)C [compound 449, N-(2-((2-(dimethylamino)ethyl)(methyl)amino)-4-methoxy-5-((6-((R)-3-(3-(trifluoromethyl)phenyl)isoxazolidine-2-yl)pyrimidine-4-yl)amino)phenyl)acrylamide]
- Ba/F3 (NPH) Activity: A (GI50 < 50 nM)

Structure (SMILES): C=CC(=O)Nc1cc(Nc2cc(N3OCC[C@@H]3c3cccc(F)c3F)ncn2)c(OC)cc1N1CCC(N2CC[C@H](N(C)C)C2)CC1 [compound 340, N-(5-((6-((R)-3-(2,3-difluorophenyl)isoxazolidine-2-yl)pyrimidine-4-yl)amino)-2-(4-((S)-3-(dimethylamino)pyrolidine-1-yl)piperidine-1-yl)-4-methoxyphenyl) acrylamide]
- Ba/F3 (NPH) Activity: A (GI50 < 50 nM)

Structure (SMILES): C=CC(=O)Nc1cc(Nc2cc(N3OCC[C@@H]3c3cc(F)cc(Cl)c3)ncn2)c(OC)cc1N1CCC(N2CCN(C3CC3)[C@@H](C)C2)CC1 [Example 157, N-(5-((6-((R)-3-(3-chloro-5-fluorophenyl)isoxazolidine-2-yl)pyrimidine-4-yl)amino)-2-(4-((S)-4-cyclopropyl-3-methylpiperazine-1-yl)piperidine-1-yl)-4-methoxyphenyl) acrylamide]
- Ba/F3 (NPH) Activity: A (GI50 < 50 nM)

Structure (SMILES): C=CC(=O)Nc1cc(Nc2cc(N3OCC[C@@H]3c3ccc(Cl)c(F)c3)ncn2)c(OC)cc1N1CCC(N2C[C@@H](C)O[C@@H](C)C2)CC1 [compound 709, N-(5-((6-((R)-3-(4-chloro-3-fluorophenyl)isoxazolidine-2-yl)pyrimidine-4-yl)amino)-2-(4-((2S,6R)-2,6-dimethylmorpholino)piperidine-1-yl)-4-methoxyphenyl) acrylamide]
- Ba/F3 (NPH) Activity: A (GI50 < 50 nM)

Structure (SMILES): C=CC(=O)Nc1cc(Nc2cc(N3OCC[C@@H]3c3ccc(Cl)c(F)c3)ncn2)c(OC)cc1N1CCC(N2C[C@@H]3C[C@H]2CO3)CC1 [compound 802, N-(2-(4-((1S,4S)-2-oxa-5-azabicyclo [2.2.1]heptane-5-yl)piperidine-1-yl)-5-((6-((R)-3-(4-chloro-3-fluorophenyl)isoxazolidine-2-yl)pyrimidine-4-yl)amino)-4-methoxyphenyl) acrylamide]
- Ba/F3 (NPH) Activity: A (GI50 < 50 nM)

Structure (SMILES): C=CC(=O)Nc1cc(Nc2cc(N3OCC[C@@H]3c3cccc(Cl)c3Cl)ncn2)c(OC)cc1N1CCC(N2CC[C@@H](N(C)C)C2)CC1 [compound 610, N-(5-((6-((R)-3-(2,3-dichlorophenyl)isoxazolidine-2-yl)pyrimidine-4-yl)amino)-2-(4-((R)-3-(dimethylamino)pyrolidine-1-yl)piperidine-1-yl)-4-methoxyphenyl) acrylamide]
- Ba/F3 (NPH) Activity: B (50 nM ≤ GI50 < 500 nM)

Structure (SMILES): C=CC(=O)Nc1cc(Nc2cc(N3OCC[C@H]3c3c(F)cccc3F)ncn2)c(OC)cc1N1CCC(N2CC[C@@H](N(C)C)C2)CC1 [compound 314, N-(5-((6-((S)-3-(2,6-difluorophenyl)isoxazolidine-2-yl)pyrimidine-4-yl)amino)-2-(4-((R)-3-(dimethylamino)pyrolidine-1-yl)piperidine-1-yl)-4-methoxyphenyl) acrylamide]
- Ba/F3 (NPH) Activity: C (500 nM ≤ GI50 < 5000 nM)

Structure (SMILES): C=CC(=O)Nc1cc(Nc2cc(N3OCC[C@@H]3c3cccc(F)c3)ncn2)c(OC)cc1N1CCOCC1 [compound 840, N-(5-((6-((R)-3-(3-fluorophenyl)isoxazolidine-2-yl)pyrimidine-4-yl)amino)-4-methoxy-2-morpholinophenyl) acrylamide]
- Ba/F3 (NPH) Activity: A (GI50 < 50 nM)

Reference: US12157730B2, “Heteroaryl derivative, method for producing same, and pharmaceutical composition comprising same as effective component” (VORONOI INC., priority 2019, dated 2024)
